What follows are cell lines tested with NC(=O)c1ccc(N(C(N)=O)c2c(F)cccc2F)nc1-c1ccc(F)cc1F [VX-702] + Cc1nc(Nc2ncc(C(=O)Nc3c(C)cccc3Cl)s2)cc(N2CCN(CCO)CC2)n1 [Dasatinib] (partner 0.075 µM) (assay: relative viability (nuclei count vs DMSO), 5 days (fraction); higher = more cells survive). Conditions: first compound 0.02 µM.
In short: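 Medians of duplicate plates are given as relative viability. That measure is the nuclei count in treated wells divided by the count in vehicle wells. Counts were taken on 4× images of lung cancer cell lines in 1536-well plates, 5 days after pin-tool dosing the day after seeding with one drug alone or a fixed anchor-drug dose plus five library-drug doses (not always all listed) in √10 steps.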

Cell Line	relative viability
ABC-1	0.666
CAL-12T	0.409
NCI-H1944	0.226
NCI-H2085	0.209
NCI-H2228	0.466
NCI-H441	0.633
NCI-H522	0.978
EMC-BAC-2	0.182
NCI-H2170	0.532
UMC-11	0.456
NCI-H650	0.481
LCLC-103H	0.487
NCI-H596	0.672
HCC-827	0.274
COR-L 105	0.315
NCI-H2126	0.637
NCI-H647	0.151
LOU-NH91	0.572
HCC-78	0.449
NCI-H1651	0.395

Cell Line	relative viability
NCI-H1755	0.44
HOP-62	0.741
PC-14	0.337
NCI-H1650	0.385
ChaGo-K-1	0.769
A-427	0.689
NCI-H1355	0.883
NCI-H1792	0.556
HCC-15	0.667
LU99A	0.427
NCI-H1793	0.412
NCI-H2342	0.327
NCI-H1563	0.395
NCI-H727	0.372
LK-2	0.269
NCI-H358	0.146
NCI-H1623	0.515
NCI-H1395	0.414
SK-MES-1	0.374

Same assay, conditions: first compound 0.2 µM

Cell Line	relative viability
ABC-1	0.535
CAL-12T	0.539
NCI-H1944	0.212
NCI-H2085	0.339
NCI-H2228	0.499
NCI-H441	0.565
NCI-H522	0.7
EMC-BAC-2	0.331
NCI-H2170	0.654
UMC-11	0.379
LCLC-103H	0.403
NCI-H596	0.579
HCC-827	0.342
COR-L 105	0.402
NCI-H2126	0.542
NCI-H647	0.171
LOU-NH91	0.553
HCC-78	0.338
NCI-H1651	0.456

Cell Line	relative viability
NCI-H1755	0.432
HOP-62	0.702
PC-14	0.323
NCI-H1650	0.346
ChaGo-K-1	0.584
A-427	0.698
NCI-H1355	0.679
NCI-H1792	0.781
HCC-15	0.501
LU99A	0.415
NCI-H1793	0.392
NCI-H2342	0.335
NCI-H1563	0.445
NCI-H727	0.359
LK-2	0.329
NCI-H358	0.144
NCI-H1623	0.453
NCI-H1395	0.413
SK-MES-1	0.389

Same assay, conditions: first compound 0.6325 µM

Cell Line	relative viability
ABC-1	0.573
CAL-12T	0.273
NCI-H1944	0.221
NCI-H2085	0.207
NCI-H2228	0.461
NCI-H441	0.627
NCI-H522	0.83
EMC-BAC-2	0.332
NCI-H2170	0.544
UMC-11	0.386
NCI-H650	0.534
LCLC-103H	0.504
NCI-H596	0.56
HCC-827	0.271
COR-L 105	0.313
NCI-H2126	0.549
NCI-H647	0.211
LOU-NH91	0.576
HCC-78	0.351
NCI-H1651	0.359

Cell Line	relative viability
NCI-H1755	0.367
HOP-62	0.674
PC-14	0.295
NCI-H1650	0.334
ChaGo-K-1	0.622
A-427	0.796
NCI-H1355	0.683
NCI-H1792	0.714
HCC-15	0.602
LU99A	0.522
NCI-H1793	0.382
NCI-H2342	0.348
NCI-H1563	0.416
NCI-H727	0.295
LK-2	0.219
NCI-H358	0.156
NCI-H1623	0.422
NCI-H1395	0.415
SK-MES-1	0.342

Same assay, conditions: first compound 2 µM

Cell Line	relative viability
ABC-1	0.562
CAL-12T	0.463
NCI-H1944	0.169
NCI-H2085	0.27
NCI-H2228	0.535
NCI-H441	0.697
NCI-H522	0.984
EMC-BAC-2	0.275
NCI-H2170	0.74
UMC-11	0.492
NCI-H650	0.533
LCLC-103H	0.507
NCI-H596	0.57
HCC-827	0.145
COR-L 105	0.3
NCI-H2126	0.573
NCI-H647	0.246
LOU-NH91	0.364
HCC-78	0.356
NCI-H1651	0.544

Cell Line	relative viability
NCI-H1755	0.415
HOP-62	0.735
PC-14	0.188
NCI-H1650	0.265
ChaGo-K-1	0.614
A-427	0.584
NCI-H1355	0.818
NCI-H1792	0.714
HCC-15	0.639
LU99A	0.402
NCI-H1793	0.366
NCI-H2342	0.329
NCI-H1563	0.451
NCI-H727	0.396
LK-2	0.288
NCI-H358	0.16
NCI-H1623	0.5
NCI-H1395	0.447
SK-MES-1	0.398
